pIC50: −log10 of the molar value.
Molecular target: Aldo-keto reductase family 1 member B1 (Rattus norvegicus, UniProt P07943)
Assay: Inhibition of Rattus norvegicus (rat) lens aldose reductase

| pIC50 | SMILES |
| --- | --- |
| 5.70 | CC(C(=O)O)N1C(=O)c2cc3c(c(O)c2C1=O)CC([C@@H](C)C(=O)O)O3 (some centres undefined) |
| 5.00 | COc1cc2c(=O)oc3c(O)c(O)cc4c(=O)oc(c1O)c2c34 |
| 5.62 | O=C(O)C1Cc2c(oc(=O)c3cc(O)c(O)c(O)c23)C1=O (centres undefined) |
| 5.30 | CCOC(=O)C1Cc2c(oc(=O)c3cc(O)c(O)c(O)c23)C1=O (centres undefined) |
| 4.26 | CCCC/C=C/CCCCCCCCCC1=C(OC)C(=O)C=C(OC)C1=O |
| 7.00 | CC(=O)C[C@@]1(O)C(=O)C2=C(OC[C@@H]2C)c2ccc3c(C)cccc3c21 |
| 5.76 | CC(=O)C[C@@]1(O)C(=O)C2=C(OC[C@@H]2C)c2ccc3c(c21)CCCC3(C)C |
| 5.58 | O=C(/C=C/c1ccc(O)c2c1[C@H](C(=O)O[C@@H](Cc1ccc(O)c(O)c1)C(=O)O)[C@@H](c1ccc(O)c(O)c1)O2)O[C@H](Cc1ccc(O)c(O)c1)C(=O)O |
| 5.55 | O=C(/C=C/c1ccc(O[C@@H](C(=O)O)[C@@H](O)c2ccc(O)c(O)c2)c(O)c1)O[C@H](Cc1ccc(O)c(O)c1)C(=O)O |
| 5.50 | O=CC(O)C(O)(Oc1ccc(/C=C/C(=O)O[C@H](Cc2ccc(O)c(O)c2)C(=O)O)cc1O)C(O)C(O)CO (some centres undefined) |
| 4.26 | C=C(C)[C@@H]1CC=C(COC2OC(CO)[C@H](O)[C@H](O)[C@H]2O)CC1 (some centres undefined) |
| 4.84 | C=C(C)[C@@H]1CC=C(COC2OC(CO)[C@H](O)[C@@H](O)[C@@H]2O)CC1 (some centres undefined) |
| 4.32 | CC(=O)O[C@H]1C[C@]2(CO)C3CC[C@@]4(C)C(C(=O)CC(=O)[C@@H]4C)[C@]3(C)CC[C@@]2(C)C2CC(C)(C)CC[C@@]21C (some centres undefined) |
| 4.26 | CC1(C)C2CC[C@]3(C)C(CC=C4C5C[C@](C)(C(=O)O)C[C@@H](O)[C@]5(C)CC[C@]43C)[C@@]2(C)CC[C@@H]1O (some centres undefined) |
| 4.12 | CC1(C)C2CC[C@]3(C)C(CC=C4C5C[C@](C)(C(=O)O)C[C@H](O)[C@]5(C)CC[C@]43C)[C@@]2(C)CC[C@@H]1O (some centres undefined) |
| 4.41 | CC(C)c1ccc2c(c1)CCC1[C@@](C)(CO)CCC[C@]21C (some centres undefined) |
| 4.45 | CC(C)c1ccc2c(c1)CCC1[C@@](C)(C(=O)O)CCC[C@]21C (some centres undefined) |
| 4.54 | CC(=O)c1c(O)cc(O)cc1O[C@@H]1OC(COC(=O)c2cc(O)c(O)c(O)c2)[C@H](O)[C@H](O)[C@@H]1O (some centres undefined) |
| 5.74 | O=C(/C=C/c1ccc(O)c(O)c1)OC1C[C@](O)(C(=O)O)C[C@H](O)[C@@H]1O (some centres undefined) |
| 4.02 | CC1(C)C[C@H](O)[C@]23CC[C@@H](O)[C@](C)(CCC12)C3 (some centres undefined) |
| 4.35 | CC1(C)CC2C1CC[C@@]1(C)C[C@]2(O)CC[C@@H]1O (some centres undefined) |
| 4.42 | COc1cc2c(c(OC)c1OC)-c1c(cc(O)c(OC)c1OC)C[C@H](C)[C@H](C)[C@H]2O |
| 4.00 | COc1cc(C(=O)/C(C)=C(/C)C(=O)c2ccc(O)c(OC)c2)ccc1O |

| pIC50 | SMILES |
| --- | --- |
| 4.46 | CCOc1ccc(C(=O)/C(C)=C(/C)C(=O)c2ccc(O)c(OC)c2)cc1OC |
| 4.45 | COc1cc(/C=C(/C)[C@H](C)Cc2ccc(O)c(OC)c2)ccc1O |
| 4.60 | COc1cc([C@H]2O[C@H](c3ccc(O)c(OC)c3)[C@@H](C)[C@H]2C)ccc1O |
| 4.92 | CC(CCC(=O)O)N1Cc2c(cc3c(c2O)CC([C@@H](C)C(=O)O)O3)C1=O (some centres undefined) |
| 5.90 | C[C@@H](C(=O)O)C1Cc2c(cc3c(c2O)CN(CC(=O)O)C3=O)O1 (some centres undefined) |
| 5.35 | CC(C(=O)O)N1Cc2c(cc3c(c2O)CC([C@@H](C)C(=O)O)O3)C1=O (some centres undefined) |
| 5.27 | C[C@@H](C(=O)O)C1Cc2c(cc3c(c2O)C(=O)NC3=O)O1 (some centres undefined) |
| 6.35 | C[C@@H](C(=O)O)C1Cc2c(cc3c(c2O)C(=O)N(CC(=O)O)C3=O)O1 (some centres undefined) |
| 5.06 | CC(=O)C1=C(O)C2=CO[C@H](C)[C@@H](C)C2=C(C)C1=O |
| 4.92 | Cc1cc(C(=O)O)c(O)c2c1[C@H](C)[C@@H](C)OC2 |
| 4.72 | O=C1CC(O)C1=O (centres undefined) |
| 8.89 | COC(=O)c1cc2cc3cc4cc(CC(=O)O)c(C(=O)/C=C(\O)c5ccccc5O)c(OC)c4c(OC)c3c(O)c2c(=O)o1 |
| 4.33 | C=C(C)C1CCC(CO[C@H]2OC(CO)C(O)[C@H](O)[C@@H]2O)CC1 (some centres undefined) |
| 4.55 | C=C(C)C1CCC(COC2O[C@H](CO)[C@H](O)[C@@H](O)C2O)CC1 (some centres undefined) |
| 4.00 | COc1cc2c(c(OC)c1C)COC(C)C2 (centres undefined) [6,8-DIMETHOXY-3,7-DIMETHYLISOCHROMAN] |
| 4.48 | COc1cc2c(c(O)c1C)COC(C)C2 (centres undefined) [6-METHOXY-3,7-DIMETHYLISOCHROMAN-8-OL] |
| 3.74 | O=Cc1ccc(CO)o1 [AES-103] |
| 6.06 | Cc1cccc2c3c(ccc12)C(=O)C(C(C)CO)=C(O)C3=O (centres undefined) [DANSHENXINKUN A] |
| 4.36 | O=C1C(O)=CC(=O)c2c(O)cc(O)cc21 [FLAVIOLIN] |
| 4.42 | COc1cc([C@H]2O[C@@H](c3ccc(O)c(OC)c3)[C@H](C)[C@@H]2C)ccc1O [NECTANDRIN B] |
| 5.41 | O=C(/C=C/c1ccc(O)c(O)c1)O[C@H](Cc1ccc(O)c(O)c1)C(=O)O [ROSMARINIC ACID] |
| 5.00 | Cc1coc2c1C(=O)C(=O)c1c-2ccc2c(C)cccc12 [TANSHINONE I] |
| 4.67 | COc1cc([C@H]2O[C@@H](c3ccc(O)c(OC)c3)[C@@H](C)[C@H]2C)ccc1O [TETRAHYDROFUROGUAIACIN B] |

| SMILES | pIC50 |
| --- | --- |
| CNC(=O)Oc1c(C)c(OC)cc2c1COC(C)C2 (centres undefined) | 4.46 |
| C[C@H]1COC2=C1C(=O)C(=O)c1c2ccc2c1CCCC2(C)C [CRYPTOTANSHINONE] | 5.32 |
| Cc1cccc2c3c(ccc12)C1=C(C(=O)C3=O)[C@@H](C)CO1 [DIHYDROTANSHINONE I] | 5.92 |

Reference: ChEMBL document CHEMBL3045136, “QSAR and flexible docking studies of some aldose reductase inhibitors obtained from natural origin” (Med Chem Res, 2012)
